{"source": "patent US10392391B2", "about": "(Vertex Pharmaceuticals Incorporated, priority 2012, dated 2019)"}
{"target": "ATR kinase (full-length ATR) (Homo sapiens (Human), UniProt Q13535)", "sequence (Q13535 whole entry)": "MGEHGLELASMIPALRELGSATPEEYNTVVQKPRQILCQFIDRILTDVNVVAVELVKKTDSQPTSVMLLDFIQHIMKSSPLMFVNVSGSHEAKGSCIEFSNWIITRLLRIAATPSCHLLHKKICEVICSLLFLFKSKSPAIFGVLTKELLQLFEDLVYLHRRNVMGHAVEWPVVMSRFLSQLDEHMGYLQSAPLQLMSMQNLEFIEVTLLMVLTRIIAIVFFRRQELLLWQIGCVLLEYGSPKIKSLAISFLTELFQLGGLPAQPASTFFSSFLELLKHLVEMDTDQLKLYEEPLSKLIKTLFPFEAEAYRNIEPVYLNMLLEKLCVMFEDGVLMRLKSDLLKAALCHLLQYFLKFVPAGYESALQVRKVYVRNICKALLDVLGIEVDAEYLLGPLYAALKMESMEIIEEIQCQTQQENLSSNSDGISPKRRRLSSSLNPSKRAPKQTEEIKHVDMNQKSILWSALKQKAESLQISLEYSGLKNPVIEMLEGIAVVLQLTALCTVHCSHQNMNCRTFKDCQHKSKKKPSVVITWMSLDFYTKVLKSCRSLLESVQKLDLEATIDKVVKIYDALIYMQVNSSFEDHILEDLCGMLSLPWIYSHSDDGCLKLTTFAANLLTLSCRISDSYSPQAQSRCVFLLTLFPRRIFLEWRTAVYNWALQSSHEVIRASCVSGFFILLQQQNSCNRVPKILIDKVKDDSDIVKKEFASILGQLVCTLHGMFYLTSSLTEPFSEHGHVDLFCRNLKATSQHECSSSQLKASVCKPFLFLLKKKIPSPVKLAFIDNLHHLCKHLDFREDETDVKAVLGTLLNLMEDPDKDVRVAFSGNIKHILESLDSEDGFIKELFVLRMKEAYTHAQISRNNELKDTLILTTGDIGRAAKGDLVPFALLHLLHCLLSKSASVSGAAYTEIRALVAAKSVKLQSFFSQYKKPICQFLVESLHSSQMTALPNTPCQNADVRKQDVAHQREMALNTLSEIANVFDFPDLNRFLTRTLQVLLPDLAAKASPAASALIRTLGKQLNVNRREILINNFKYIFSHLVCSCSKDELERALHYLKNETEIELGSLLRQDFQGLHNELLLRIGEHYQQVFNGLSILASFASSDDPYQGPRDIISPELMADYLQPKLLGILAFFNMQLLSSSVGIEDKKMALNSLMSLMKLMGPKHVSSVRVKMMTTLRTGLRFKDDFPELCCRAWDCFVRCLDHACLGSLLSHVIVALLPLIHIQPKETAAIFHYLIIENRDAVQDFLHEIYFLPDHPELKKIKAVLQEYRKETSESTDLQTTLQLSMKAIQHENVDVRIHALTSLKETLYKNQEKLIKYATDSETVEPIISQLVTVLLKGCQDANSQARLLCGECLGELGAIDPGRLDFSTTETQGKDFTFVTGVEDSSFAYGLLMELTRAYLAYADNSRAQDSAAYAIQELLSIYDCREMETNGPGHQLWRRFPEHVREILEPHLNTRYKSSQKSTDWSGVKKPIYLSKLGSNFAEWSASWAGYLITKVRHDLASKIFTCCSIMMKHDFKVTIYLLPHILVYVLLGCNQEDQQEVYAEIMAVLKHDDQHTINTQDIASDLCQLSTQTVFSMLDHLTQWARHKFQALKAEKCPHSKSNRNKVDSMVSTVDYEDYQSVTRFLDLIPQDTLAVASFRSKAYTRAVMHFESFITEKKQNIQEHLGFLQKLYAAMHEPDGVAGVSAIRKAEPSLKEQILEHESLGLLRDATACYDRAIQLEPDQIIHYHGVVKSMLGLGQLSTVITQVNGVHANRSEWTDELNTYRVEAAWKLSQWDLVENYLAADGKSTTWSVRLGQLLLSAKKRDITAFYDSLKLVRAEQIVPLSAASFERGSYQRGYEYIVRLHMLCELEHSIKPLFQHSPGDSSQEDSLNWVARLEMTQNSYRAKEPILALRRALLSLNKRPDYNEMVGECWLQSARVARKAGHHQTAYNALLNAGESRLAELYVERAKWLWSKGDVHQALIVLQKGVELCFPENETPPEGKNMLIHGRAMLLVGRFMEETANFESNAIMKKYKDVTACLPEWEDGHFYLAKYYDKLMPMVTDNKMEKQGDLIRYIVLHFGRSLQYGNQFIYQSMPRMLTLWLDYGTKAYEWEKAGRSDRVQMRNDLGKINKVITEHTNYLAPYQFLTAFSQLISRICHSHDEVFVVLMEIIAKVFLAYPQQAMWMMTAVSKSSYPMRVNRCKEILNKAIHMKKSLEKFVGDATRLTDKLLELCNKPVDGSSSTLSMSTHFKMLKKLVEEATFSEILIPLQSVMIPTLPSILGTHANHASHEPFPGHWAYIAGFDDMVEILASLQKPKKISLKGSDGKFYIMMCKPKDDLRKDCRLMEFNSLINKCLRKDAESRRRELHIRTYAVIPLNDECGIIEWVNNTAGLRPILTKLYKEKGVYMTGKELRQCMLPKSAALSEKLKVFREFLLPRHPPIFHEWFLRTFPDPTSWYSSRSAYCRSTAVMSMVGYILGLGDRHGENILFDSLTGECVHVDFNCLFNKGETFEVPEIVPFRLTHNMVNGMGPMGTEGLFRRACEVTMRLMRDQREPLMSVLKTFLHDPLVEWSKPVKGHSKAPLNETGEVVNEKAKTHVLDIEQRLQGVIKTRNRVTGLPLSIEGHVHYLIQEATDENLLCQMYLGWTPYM", "test": "ATR inhibition assay (radioactive-phosphate incorporation)", "format": "biochemical", "details": "not given", "summary_of_the_method": "(§1)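 Radiometric 33P incorporation by 5 nM full-length ATR into 800 μM target peptide with 10 μM [γ-33P]ATP, in 50 mM Tris/HCl pH 7.5, 10 mM MgCl2, 1 mM DTT, 7% DMSO, 25° C. Compound pre-incubated 10 minutes; reaction stopped after 24 hours, captured on phosphocellulose. Ki(app) from non-linear regression of initial rates.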", "units": {"Ki": "nM"}}
{"smiles": "CN1CCN(C2CCN(c3c(F)cncc3NC(=O)c3c(N)nn4cc(F)cnc34)CC2)C(=O)C1", "note": "[I-N-151, 2-amino-6-fluoro-N-(5-fluoro-4-(4-(4-methyl-2-oxopiperazin-1-yl)piperidin-1-yl)pyridin-3-yl)pyrazolo[1,5-a]pyrimidine-3-carboxamide]", "Ki": "1000 to 5000"}
{"smiles": "CN1CCC(c2c(F)cncc2NC(=O)c2c(N)nn3cc(F)cnc23)CC1", "note": "[I-C-14, 2-amino-6-fluoro-N-(5-fluoro-4-(1-methylpiperidin-4-yl)pyridin-3-yl)pyrazolo[1,5-a]pyrimidine-3-carboxamide]", "Ki": "1000 to 5000"}
{"smiles": "CN(C)[C@H]1CCN(c2ccncc2NC(=O)c2c(N)nn3cc(Cl)cnc23)C[C@@H]1O", "note": "[I-N-35, 2-amino-6-chloro-N-(4-((3S,4S)-4-(dimethylamino)-3-hydroxypiperidin-1-yl)pyridin-3-yl)pyrazolo[1,5-a]pyrimidine-3-carboxamide]", "Ki": "1000 to 5000"}
{"target": "ATR kinase (full-length ATR) (Homo sapiens (Human), UniProt Q13535)", "test": "ATR inhibition assay (radioactive-phosphate incorporation)", "format": "biochemical", "details": "Ki(app), 5 nM full-length ATR, 10 μM ATP, 25° C.", "summary_of_the_method": "as §1", "units": {"Ki": "nM"}}
{"smiles": "COCCn1cncc1-c1ccncc1NC(=O)c1c(N)nn2cc(F)cnc12", "note": "[I-C-83, 2-amino-6-fluoro-N-(4-(1-(2-methoxyethyl)-1H-imidazol-5-yl)pyridin-3-yl)pyrazolo[1,5-a]pyrimidine-3-carboxamide]", "Ki": "10 to 1000"}
{"smiles": "Nc1nn2cc(Cl)cnc2c1C(=O)Nc1cnccc1N1CC[S+]([O-])CC1", "note": "[I-N-68, 2-amino-6-chloro-N-(4-(1-oxidothiomorpholino)pyridin-3-yl)pyrazolo[1,5-a]pyrimidine-3-carboxamide]", "Ki": "10 to 1000"}
{"smiles": "CN1CCN(C(=O)N2CCC(c3ccncc3NC(=O)c3c(N)nn4cc(F)cnc34)CC2)CC1", "note": "[I-C-17, 2-amino-6-fluoro-N-(4-(1-(4-methylpiperazine-1-carbonyl)piperidin-4-yl)pyridin-3-yl)pyrazolo[1,5-a]pyrimidine-3-carboxamide]", "Ki": "10 to 1000"}
{"smiles": "Nc1nn2cc(F)cnc2c1C(=O)Nc1cnccc1-c1cncnc1", "note": "[I-C-28, 2-amino-6-fluoro-N-(4-(pyrimidin-5-yl)pyridin-3-yl)pyrazolo[1,5-a]pyrimidine-3-carboxamide]", "Ki": "10 to 1000"}
{"smiles": "CC(=O)N1CCCC12CCN(c1ccncc1NC(=O)c1c(N)nn3cc(F)cnc13)CC2", "note": "[I-N-262, N-(4-(1-acetyl-1,8-diazaspiro[4.5]decan-8-yl)pyridin-3-yl)-2-amino-6-fluoropyrazolo[1,5-a]pyrimidine-3-carboxamide]", "Ki": "10 to 1000"}
{"smiles": "COc1ccncc1NC(=O)c1c(N)nn2cc(Cl)cnc12", "note": "[I-O-57, 2-amino-6-chloro-N-(4-methoxypyridin-3-yl)pyrazolo[1,5-a]pyrimidine-3-carboxamide]", "Ki": "10 to 1000"}
{"smiles": "CC1(O)CN(C(=O)C2CCN(c3c(F)cncc3NC(=O)c3c(N)nn4cc(F)cnc34)CC2)C1", "note": "[I-G-63, 2-amino-6-fluoro-N-(5-fluoro-4-(4-(3-hydroxy-3-methylazetidine-1-carbonyl)piperidin-1-yl)pyridin-3-yl)pyrazolo[1,5-a]pyrimidine-3-carboxamide]", "Ki": "10 to 1000"}
{"smiles": "Nc1nn2cc(F)cnc2c1C(=O)Nc1cncc(Cl)c1N1CCN2CCN(C3COC3)CC2C1", "note": "(stereo not shown) [I-N-38, 2-amino-N-(5-chloro-4-(8-(oxetan-3-yl)hexahydro-1H-pyrazino[1,2-a]pyrazin-2(6H)-yl)pyridin-3-yl)-6-fluoropyrazolo[1,5-a]pyrimidine-3-carboxamide]", "Ki": "10 to 1000"}
{"smiles": "Cn1nncc1-c1ccncc1NC(=O)c1c(N)nn2cc(F)cnc12", "note": "[I-C-72, 2-amino-6-fluoro-N-(4-(1-methyl-1H-1,2,3-triazol-5-yl)pyridin-3-yl)pyrazolo[1,5-a]pyrimidine-3-carboxamide]", "Ki": "10 to 1000"}
{"smiles": "CN1CCN(c2ccncc2NC(=O)c2c(N)nn3cc(F)cnc23)CC1=O", "note": "[I-N-209, 2-amino-6-fluoro-N-(4-(4-methyl-3-oxopiperazin-1-yl)pyridin-3-yl)pyrazolo[1,5-a]pyrimidine-3-carboxamide]", "Ki": "10 to 1000"}
{"smiles": "N#CCc1cnc2c(C(=O)Nc3cnccc3OC3CCOC3)c(N)nn2c1", "note": "(racemic) [I-O-37, (R,S)-2-amino-6-(cyanomethyl)-N-(4-((tetrahydrofuran-3-yl)oxy)pyridin-3-yl)pyrazolo[1,5-a]pyrimidine-3-carboxamide]", "Ki": "< 10"}
{"smiles": "Nc1nn2cc(F)cnc2c1C(=O)Nc1cncc(F)c1N1CCC(C(=O)N2CCC(N3CCCCC3)C2)CC1", "note": "(stereo not shown) [I-G-64, 2-amino-6-fluoro-N-(5-fluoro-4-(4-(3-(piperidin-1-yl)pyrrolidine-1-carbonyl)piperidin-1-yl)pyridin-3-yl)pyrazolo[1,5-a]pyrimidine-3-carboxamide]", "Ki": "10 to 1000"}
{"smiles": "Nc1nn2cc(F)cnc2c1C(=O)Nc1cnccc1N1CCC(C(=O)N2CCOCC2)CC1", "note": "[I-G-85, 2-amino-6-fluoro-N-(4-(4-(morpholine-4-carbonyl)piperidin-1-yl)pyridin-3-yl)pyrazolo[1,5-a]pyrimidine-3-carboxamide]", "Ki": "10 to 1000"}
{"smiles": "CN1CC(C(=O)N2CCN(c3c(F)cncc3NC(=O)c3c(N)nn4cc(F)cnc34)CC2)C1", "note": "[I-N-194]", "Ki": "10 to 1000"}
{"smiles": "Nc1nn2cc(Cl)cnc2c1C(=O)Nc1cnccc1O[C@@H]1CCCNC1", "note": "[I-O-81, (R)-2-amino-6-chloro-N-(4-(piperidin-3-yloxy)pyridin-3-yl)pyrazolo[1,5-a]pyrimidine-3-carboxamide]", "Ki": "10 to 1000"}
{"smiles": "Nc1nn2cc(F)cnc2c1C(=O)Nc1cnccc1C1CCN(C(=O)C2CC2)CC1", "note": "[I-C-70, 2-amino-N-(4-(1-(cyclopropanecarbonyl)piperidin-4-yl)pyridin-3-yl)-6-fluoropyrazolo[1,5-a]pyrimidine-3-carboxamide]", "Ki": "10 to 1000"}
{"smiles": "Nc1nn2cc(F)cnc2c1C(=O)Nc1cnccc1-c1ccnnc1", "note": "[I-C-26, 2-amino-6-fluoro-N-(4-(pyridazin-4-yl)pyridin-3-yl)pyrazolo[1,5-a]pyrimidine-3-carboxamide]", "Ki": "10 to 1000"}
{"smiles": "COC1CN(C2CCN(c3ccncc3NC(=O)c3c(N)nn4cc(Cl)cnc34)CC2)C1", "note": "[I-N-107, 2-amino-6-chloro-N-(4-(4-(3-methoxyazetidin-1-yl)piperidin-1-yl)pyridin-3-yl)pyrazolo[1,5-a]pyrimidine-3-carboxamide]", "Ki": "10 to 1000"}
{"smiles": "Nc1nn2cc(F)cnc2c1C(=O)Nc1cnccc1OC1CCN(C2COC2)CC1", "note": "[I-O-11, 2-amino-6-fluoro-N-(4-((1-(oxetan-3-yl)piperidin-4-yl)oxy)pyridin-3-yl)pyrazolo[1,5-a]pyrimidine-3-carboxamide]", "Ki": "10 to 1000"}
{"smiles": "Nc1nn2cc(Cl)cnc2c1C(=O)Nc1cnccc1N1CCN2CCC[C@@H]2C1", "note": "[I-N-65, (R)-2-amino-6-chloro-N-(4-(hexahydropyrrolo[1,2-a]pyrazin-2(1H)-yl)pyridin-3-yl)pyrazolo[1,5-a]pyrimidine-3-carboxamide]", "Ki": "10 to 1000"}
{"smiles": "COC1(C)CN(C(=O)C2CCN(c3ccncc3NC(=O)c3c(N)nn4cc(F)cnc34)CC2)C1", "note": "[I-G-79, 2-amino-6-fluoro-N-(4-(4-(3-methoxy-3-methylazetidine-1-carbonyl)piperidin-1-yl)pyridin-3-yl)pyrazolo[1,5-a]pyrimidine-3-carboxamide]", "Ki": "10 to 1000"}
{"smiles": "CN1C(=O)CCC12CCN(c1ccncc1NC(=O)c1c(N)nn3cc(F)cnc13)CC2", "note": "[I-N-235, 2-amino-6-fluoro-N-(4-(1-methyl-2-oxo-1,8-diazaspiro[4.5]decan-8-yl)pyridin-3-yl)pyrazolo[1,5-a]pyrimidine-3-carboxamide]", "Ki": "10 to 1000"}
{"smiles": "CC(C)(O)C1CCN(c2ccncc2NC(=O)c2c(N)nn3cc(Cl)cnc23)CC1", "note": "[I-N-69, 2-amino-6-chloro-N-(4-(4-(2-hydroxypropan-2-yl)piperidin-1-yl)pyridin-3-yl)pyrazolo[1,5-a]pyrimidine-3-carboxamide]", "Ki": "10 to 1000"}
{"smiles": "Nc1nn2cc(F)cnc2c1C(=O)Nc1cncc(F)c1N1CCN2C(=O)CCCC2C1", "note": "(stereo not shown) [I-N-277, 2-amino-6-fluoro-N-(5-fluoro-4-(6-oxohexahydro-1H-pyrido[1,2-a]pyrazin-2(6H)-yl)pyridin-3-yl)pyrazolo[1,5-a]pyrimidine-3-carboxamide]", "Ki": "10 to 1000"}
{"smiles": "Nc1nn2cc(F)cnc2c1C(=O)Nc1cncc(F)c1N1CCC(C(=O)N2CCN(C3CC3)CC2)CC1", "note": "[I-G-13, 2-amino-N-(4-(4-(4-cyclopropylpiperazine-1-carbonyl)piperidin-1-yl)-5-fluoropyridin-3-yl)-6-fluoropyrazolo[1,5-a]pyrimidine-3-carboxamide]", "Ki": "10 to 1000"}
{"smiles": "Nc1nn2cc(F)cnc2c1C(=O)Nc1cncc(F)c1N1CCN2CCOC[C@@H]2C1", "note": "[I-N-137, (S)-2-amino-6-fluoro-N-(5-fluoro-4-(hexahydropyrazino[2,1-c][1,4]oxazin-8(1H)-yl)pyridin-3-yl)pyrazolo[1,5-a]pyrimidine-3-carboxamide]", "Ki": "10 to 1000"}
{"smiles": "CN1CCN(C(=O)C2CCN(c3c(F)cncc3NC(=O)c3c(N)nn4cc(F)cnc34)CC2)C2CC21", "note": "(stereo not shown) [I-G-65, 2-amino-6-fluoro-N-(5-fluoro-4-(4-(5-methyl-2,5-diazabicyclo[4.1.0]heptane-2-carbonyl)piperidin-1-yl)pyridin-3-yl)pyrazolo[1,5-a]pyrimidine-3-carboxamide]", "Ki": "10 to 1000"}
{"smiles": "CN1CCCN(c2ccncc2NC(=O)c2c(N)nn3cc(Cl)cnc23)CC1", "note": "[I-N-43, 2-amino-6-chloro-N-(4-(4-methyl-1,4-diazepan-1-yl)pyridin-3-yl)pyrazolo[1,5-a]pyrimidine-3-carboxamide]", "Ki": "10 to 1000"}
{"smiles": "CN1CCC(S(=O)(=O)N2CCN(c3c(F)cncc3NC(=O)c3c(N)nn4cc(F)cnc34)CC2)CC1", "note": "[I-N-175, 2-amino-6-fluoro-N-(5-fluoro-4-(4-((1-methylpiperidin-4-yl)sulfonyl)piperazin-1-yl)pyridin-3-yl)pyrazolo[1,5-a]pyrimidine-3-carboxamide]", "Ki": "10 to 1000"}
{"smiles": "Nc1nn2cc(F)cnc2c1C(=O)Nc1cnccc1N1CCN2C(=O)OCC2C1", "note": "(stereo not shown) [I-N-238, 2-amino-6-fluoro-N-(4-(3-oxotetrahydro-1H-oxazolo[3,4-a]pyrazin-7(3H)-yl)pyridin-3-yl)pyrazolo[1,5-a]pyrimidine-3-carboxamide]", "Ki": "10 to 1000"}
{"smiles": "Nc1nn2cc(Cl)cnc2c1C(=O)Nc1cnccc1-n1ccnc1", "note": "[I-N-29, N-(4-(1H-imidazol-1-yl)pyridin-3-yl)-2-amino-6-chloropyrazolo[1,5-a]pyrimidine-3-carboxamide]", "Ki": "10 to 1000"}
